Measured values from patent publication US20040122209A1, “Products for regulating the degradation of collagen and methods for identifying same” (Shriners Hospital For Children, priority 2002, published 2004).
Entries after “also recorded” stand apart in the source; their conditions may differ.

Key:
Format in all cases: cell-based
[1] = system: bovine articular cartilage explant; assay: Proteoglycan (GAG) content and release in bovine explant culture; conditions: subpeptides at 1 and 10 μM
Protocol: The cartilages were prepared as previously described (Dahlberg, L. et al. (2000) supra. In brief, the cartilage samples were washed three times with basal culture medium containing Dulbecco's modified Eagle's medium (DMEM; Gibco BRL, Life Technologies, Grand Island, N.Y.) with 20 mM HEAPS buffer (pH 7.4) (Gibco BRL), 45 mM NaHCO3, 100 units/ml penicillin, 100 μg/ml streptomycin and 150 μg/ml gentamycin sulphate (Medium A). Full-depth cartilage slices from a single area, around 20 mm×20 mm were cut vertical to the articular surface and then into cubes of approximately 2 mm×2 mm (5-7 cubes were randomly obtained and wet weights about 50-70 mg/well determined). The cartilage was assigned to 48 well plate (ca 40 mg/well) and kept in Medium A supplemented with 50 μg/ml ascorbic acid, 0.1 mg/bovine serum albumin, 50 μg/ml insulin, 5.0 μg/ml and 5.0 μg/ml sodium DMEM alone at 37° C. in 95% air/5% CO2. The cartilage was precultured for 2 days and medium was changed at day 0. Thereafter medium (as described in pellet cultures) was replaced every four days. Various CNBr fragments and/or synthetic peptides were freshly added from day 0 at each medium change. Thereafter, cartilage explants and conditioned media were harvested and stored at −20° C. In order to show the specificity of the peptide fragments of one embodiment on degradation of type II collagen as compared with proteoglycan, primarily aggrecan, sulphated glycosaminoglycan (GAG) content was determined in both the α-chymotrypsin and proteinase K digests for total proteoglycan (predominantly aggrecan) content in cell pellets, cartilage explants and also in conditioned media. Measurement of release of proteoglycan into media was tested using dimethylene blue dye binding as previously described (Dahlberg, L. et al. (2000) supra).

[2] = system: normal human adult articular cartilage explants; assay: Type II collagen cleavage by collagenase (COL2-3/4C) in human articular cartilage explant culture
Protocol: Human femoral chondylar cartilages were obtained at autopsy within 18 hours of death from adult persons with no known history of arthritis and no macroscopic signs of articular degeneration. None of the persons had diabetes or had received chemotherapy prior to autopsy. Adult bovine articular cartilage was obtained from adults/bovine steers and cows from metacarpalphalangeal joints obtained at the abbatoir immediately after slaughter. All cartilage specimens were removed immediately to the laboratory under sterile conditions.
(§1) The cartilages were prepared as previously described (Dahlberg, L. et al. (2000) supra. In brief, the cartilage samples were washed three times with basal culture medium containing Dulbecco's modified Eagle's medium (DMEM; Gibco BRL, Life Technologies, Grand Island, N.Y.) with 20 mM HEAPS buffer (pH 7.4) (Gibco BRL), 45 mM NaHCO3, 100 units/ml penicillin, 100 μg/ml streptomycin and 150 μg/ml gentamycin sulphate (Medium A). Full-depth cartilage slices from a single area, around 20 mm×20 mm were cut vertical to the articular surface and then into cubes of approximately 2 mm×2 mm (5-7 cubes were randomly obtained and wet weights about 50-70 mg/well determined).
The cartilage was assigned to 48 well plate (ca 40 mg/well) and kept in Medium A supplemented with 50 μg/ml ascorbic acid, 0.1 mg/bovine serum albumin, 50 μg/ml insulin, 5.0 μg/ml and 5.0 μg/ml sodium DMEM alone at 37° C. in 95% air/5% CO2. The cartilage was precultured for 2 days and medium was changed at day 0. Thereafter medium (as described in pellet cultures) was replaced every four days. Various CNBr fragments and/or synthetic peptides were freshly added from day 0 at each medium change. Thereafter, cartilage explants and conditioned media were harvested and stored at −20° C.
The cell pellets and cartilage explant cultured for various times were digested for the extraction of collagenase-generated neoepitope COL2-3/4Cshort (Billinghurst, R. C. et al., (1997) supra) and denatured type II collagen epitope COL2-3/4m and total type II collagen (Hollander, A. P. et al. (1994a) supra), as previously described: Briefly, the harvested pellets were incubated overnight with 1.0 mg/ml α-chymotrypsin at 37° C. to cleave and solubilize denatured collagen leaving the above neoepitope and epitope intact. After inhibition of α-chymotrypsin activity with N-tosyl-L-phenelalanine-chloromethyl ketone (Sigma), the samples were centrifuged and the supernatants were removed and boiled for 10 min. The COL2-3/4Cshort epitope (hereafter referred to as COL2-3/4Cshort) generated by cleavage of type II collagen by collagenase (Billinghurst, R. C. et al. (1997) supra) and intrachain epitope (COL2-3/4m) exposed in denatured type II collagen (Hollander, A. P. et al. (1994a) supra) were measured in α-chymotrypsin extracts by immunoassay. The COL2-3/4Cshort epitope is detected in an ELISA assay using a rabbit antibody to the carboxyterminal cleavage neoepitope on the TCA piece generated by primary collagenase cleavage of type II collagen. The release of the COL2-3/4C epitope into media was also measured by immunoassay. Total contents in tissue/cells and media was recorded for COL2-3/^4Cshort epitope. The COL2-3/4m epitope was recorded in cells and tissue where it was concentrated. The remaining residues of pellets and explants were digested overnight with 1.0 mg/ml proteinase K at 56° C. to extract the remaining intact type II collagen and then boiled for 10 min to denature the enzyme. Total type II collagen content in the pellets and explant was determined from the collective amount of COL2-3/4m in both the α-chymotrypsin and proteinase K digests.

[3] = system: normal human adult articular cartilage explants; assay: Proteoglycan release and content (DMMB dye assay) in human explant culture
Protocol: Cumulative proteoglycan (mainly aggrecan) released into medium was calculated by summation of proteoglycan contents in medium at each medium change of every four days. Cartilage explants were maintained for up to 16 days cultured with or without CB12-II at 10 μM. Sulfated glycosaminoglycan in medium was assayed by dimethylmethylene blue (DMMB) method. Data are expressed as μg GAG release per wet weight of cartilage.
as §1
The cartilage was assigned to 48 well plate (ca 40 mg/well) and kept in Medium A supplemented with 50 μg/ml ascorbic acid, 0.1 mg/bovine serum albumin, 50 μg/ml insulin, 5.0 μg/ml and 5.0 μg/ml sodium DMEM alone at 37° C. in 95% air/5% CO2. The cartilage was precultured for 2 days and medium was changed at day 0. […]
In order to show the specificity of the peptide fragments of one embodiment on degradation of type II collagen as compared with proteoglycan, primarily aggrecan, sulphated glycosaminoglycan (GAG) content was determined in both the α-chymotrypsin and proteinase K digests for total proteoglycan (predominantly aggrecan) content in cell pellets, cartilage explants and also in conditioned media. […]
In order to examine any effects of SP on proteoglycan catabolism in normal human articular cartilage, cumulative proteoglycan (mainly aggrecan) release into medium and proteoglycan content in cartilage were determined by DMMB (1,9-dimethylmethyleneblue) dye assay.

COL2-3/4 epitope production in cartilage and medium ([2]; 10 μM, day 12): significant progressive increase
type II collagen cleavage by collagenase in presence of peptide ([2]; hydroxylation study, day 16): clearly enhanced
Sequence: ERGPPGPQGARGFPGTPGLPGVK [CB12-II]
proteoglycan breakdown [1]: no significant effect
induction of cleavage of type II collagen, dose dependence ([2]; 1 μM (one donor), 5 μM and 10 μM (both donors), over 16 days): dose dependent manner; also recorded: Activity was seen
cumulative proteoglycan release, SP-treated versus control specimens ([3]; 10 μM, up to 16 days): no significant difference
proteoglycan release into medium ([3]; 10 μM, up to 16 days): did not induce proteoglycan release
proteoglycan content in cartilage explants ([3]; data not shown): nor did it decrease proteoglycan content
